Laboratory results taken from ChEMBL document CHEMBL5331046, “Disulfiram and dithiocarbamate analogues demonstrate promising antischistosomal effects” (Eur J Med Chem, 2022).
Active and inactive are the calls of the source. The calls are words filed in the database; no cut-off is given here.

What was measured:
Schistosoma mansoni [1] = assay: Antischistosomal activity against Schistosoma mansoni couples assessed as induction of phenotypes at 10 uM measured upto 72 hrs by bright field microscopy; assay type: functional, organism-based
Schistosoma mansoni [2] = assay: Antischistosomal activity against Schistosoma mansoni couples assessed as decrease in parasite motility at 10 uM measured upto 72 hrs by bright field microscopy; assay type: functional, organism-based
Schistosoma mansoni [3] = assay: Antischistosomal activity against Schistosoma mansoni couples assessed as decrease in parasite vitality at 15 uM measured upto 72 hrs by bright field microscopy; assay type: functional; parameters: scale not given: the % may be the effect or the level left
Schistosoma mansoni [4] = assay: Antischistosomal activity against Schistosoma mansoni couples assessed as decrease in parasite motility at 15 uM measured upto 72 hrs by bright field microscopy; assay type: functional; parameters: scale not given: the % may be the effect or the level left
Schistosoma mansoni [5] = assay: Antischistosomal activity against Schistosoma mansoni couples assessed as inhibition of eggs production at 15 uM measured upto 72 hrs by bright field microscopy; assay type: functional; parameters: scale not given: the % may be the effect or the level left
Schistosoma mansoni [6] = assay: Antischistosomal activity against Schistosoma mansoni couples assessed as decrease in pairing stability at 15 uM measured upto 72 hrs by bright field microscopy; assay type: functional; parameters: scale not given: the % may be the effect or the level left
Schistosoma mansoni [7] = assay: Antischistosomal activity against Schistosoma mansoni couples assessed as eggs deformation at 100 uM measured upto 72 hrs by bright field microscopy; assay type: functional
Schistosoma mansoni [8] = assay: Antischistosomal activity against Schistosoma mansoni couples assessed as reduction in pairing stability at 100 uM measured upto 72 hrs by bright field microscopy; assay type: functional
Schistosoma mansoni [9] = assay: Antischistosomal activity against Schistosoma mansoni couples assessed as induction of weak phenotypes at 25 uM measured upto 72 hrs by bright field microscopy; assay type: functional, organism-based
Schistosoma mansoni [10] = assay: Antischistosomal activity against Schistosoma mansoni couples assessed as decrease in parasite motility at 25 uM measured upto 72 hrs by bright field microscopy; assay type: functional; parameters: scale not given: the % may be the effect or the level left
Schistosoma mansoni [11] = assay: Antischistosomal activity against Schistosoma mansoni couples at 10 uM measured upto 72 hrs by bright field microscopy; assay type: functional, organism-based
Schistosoma mansoni [12] = assay: Antischistosomal activity against Schistosoma mansoni couples at 25 uM measured upto 72 hrs by bright field microscopy; assay type: functional, organism-based
Schistosoma mansoni [13] = assay: Antischistosomal activity against Schistosoma mansoni couples at 100 uM measured upto 72 hrs by bright field microscopy; assay type: functional, organism-based
Schistosoma mansoni [14] = assay: Antischistosomal activity against Schistosoma mansoni couples assessed as inhibition of eggs production at 100 uM measured upto 72 hrs by bright field microscopy; assay type: functional
HepG2 [15] = assay: Cytotoxicity against human HepG2 cells assessed as reduction in cell viability upto 100 uM by WST-1 assay; assay type: toxicity, cell-based; conditions: hepg2, 100 µM
LS174T [16] = assay: Cytotoxicity against human LS174T cells assessed as reduction in cell vaibility upto 100 uM by WST-1 assay; assay type: toxicity, cell-based
Schistosoma mansoni [17] = assay: Antischistosomal activity against Schistosoma mansoni couples at >=50 uM measured upto 72 hrs by bright field microscopy; assay type: functional, organism-based
LS174T [18] = assay: Cytotoxicity against human LS174T cells assessed as reduction in cell vaibility at 50 uM by WST-1 assay; assay type: toxicity, cell-based
Schistosoma mansoni [19] = assay: Antischistosomal activity against Schistosoma mansoni couples assessed as decrease in parasite motility at 100 uM measured upto 72 hrs by bright field microscopy; assay type: functional; parameters: scale not given: the % may be the effect or the level left
HepG2 [20] = assay: Cytotoxicity against human HepG2 cells assessed as reduction in cell vaibility at 50 uM by WST-1 assay; assay type: toxicity, cell-based; conditions: hepg2, 50 µM
HepG2 [21] = assay: Cytotoxicity against human HepG2 cells assessed as reduction in cell vaibility at 25 uM by WST-1 assay; assay type: toxicity, cell-based; conditions: hepg2, 25 µM
LS174T [22] = assay: Cytotoxicity against human LS174T cells assessed as reduction in cell vaibility at 25 uM by WST-1 assay; assay type: toxicity, cell-based
Schistosoma mansoni [23] = assay: Antischistosomal activity against Schistosoma mansoni couples assessed as inhibition of eggs production at 10 uM measured upto 72 hrs by bright field microscopy; assay type: functional, organism-based
Schistosoma mansoni [24] = assay: Antischistosomal activity against Schistosoma mansoni couples assessed as reduction in pairing stability at 10 uM measured upto 72 hrs by bright field microscopy; assay type: functional, organism-based
Schistosoma mansoni [25] = assay: Antischistosomal activity against Schistosoma mansoni couples assessed as decrease in parasite vitality at 10 uM measured upto 72 hrs by bright field microscopy; assay type: functional
Schistosoma mansoni [26] = assay: Antischistosomal activity against Schistosoma mansoni couples assessed as tegument damage upto 100 uM measured upto 72 hrs by bright field microscopy; assay type: functional, organism-based
Schistosoma mansoni [27] = assay: Antischistosomal activity against Schistosoma mansoni couples assessed as pairing instability at 50 uM measured upto 72 hrs by bright field microscopy; assay type: functional
Schistosoma mansoni [28] = assay: Antischistosomal activity against Schistosoma mansoni couples assessed as decrease in parasite motility at 50 uM measured upto 72 hrs by bright field microscopy; assay type: functional; parameters: scale not given: the % may be the effect or the level left
Schistosoma mansoni [29] = assay: Antischistosomal activity against Schistosoma mansoni couples assessed as gut dilations at 100 uM measured upto 72 hrs by bright field microscopy; assay type: functional, organism-based
Schistosoma mansoni [30] = assay: Antischistosomal activity against Schistosoma mansoni couples assessed as tegument damage at 100 uM measured upto 72 hrs by bright field microscopy; assay type: functional, organism-based

With `CCS(=O)(=O)N1CCN(C(=S)SCc2ccc([N+](=O)[O-])cc2)CC1` the Activity (Schistosoma mansoni [1]) was “inactive”, the Activity (Schistosoma mansoni [2]) was “inactive” and the Activity (Schistosoma mansoni [3]) was 90%. For the same molecule, the Activity (Schistosoma mansoni [4]) was 50%, the Activity (Schistosoma mansoni [5]) was 40% and the Activity (Schistosoma mansoni [6]) was 20%.

`CN(C)C(=S)SCc1ccccc1` was tested, and the Activity (Schistosoma mansoni [7]) was “Active” and the Activity (Schistosoma mansoni [8]) was “Active”.

`Cl.N[C@@H](CO)C(=O)N1CCN(C(=S)SCc2ccc([N+](=O)[O-])cc2)CC1` was tested, and the Activity (Schistosoma mansoni [9]) was “Active” and the Activity (Schistosoma mansoni [10]) was 30%.

With `CC(C)NC(=O)CN1CCN(C(=S)SCc2ccc([N+](=O)[O-])cc2)CC1` the Activity (Schistosoma mansoni [11]) was “inactive”, the Activity (Schistosoma mansoni [12]) was “Active” and the Activity (Schistosoma mansoni [13]) was “Active”.

In the case of `CCN(CC)C(=S)Sc1ccccc1`, the Activity (Schistosoma mansoni [14]) is reported as “Active” and the Activity (Schistosoma mansoni [8]) is reported as “inactive”.

For `CC(=O)N1CCN(C(=S)SCc2ccc([N+](=O)[O-])cc2)CC1`, the Activity (Schistosoma mansoni [12]) was “inactive”.

In the case of `CCN(CC)C(=S)SCC(N)=O`, the Activity (Schistosoma mansoni [8]) is reported as “Active”.

In the case of `CCN(CC)C(=S)SCc1ccc(C)cc1`, the Activity (HepG2 [15]) is reported as “Non-Toxic” and the Activity (LS174T [16]) is reported as “Non-Toxic”.

`CCN(CC)C(=S)SCC(=O)O` was tested, and the Activity (Schistosoma mansoni [8]) was “Active”.

With `CN1CCN(C(=S)SCc2ccccc2)CC1` the Activity (Schistosoma mansoni [17]) was “Active”.

`CCN(CC)C(=S)SCc1ccccc1` was tested, and the Activity (LS174T [18]) was “Toxic”, the Activity (Schistosoma mansoni [19]) was 50% and the Activity (Schistosoma mansoni [14]) was 100%. For the same molecule, the Activity (Schistosoma mansoni [10]) was 30%, the Activity (HepG2 [20]) was “Toxic” and the Activity (Schistosoma mansoni [8]) was 100%.

`CCN(CC)C(=S)CCc1ccccc1` was tested, and the Activity (Schistosoma mansoni [13]) was “inactive”.

Work on `CCN(CC)C(=O)OCc1ccccc1` yielded an Activity (Schistosoma mansoni [7]) of about 100%.

In the case of `O=[N+]([O-])c1ccc(CSC(=S)N2CCN(S(=O)(=O)C3CC3)CC2)cc1`, the Activity (Schistosoma mansoni [1]) is reported as “Active”, the Activity (Schistosoma mansoni [2]) is reported as “Active” and the Activity (Schistosoma mansoni [3]) is reported as 90%. It also gave an Activity (Schistosoma mansoni [4]) of 50%, an Activity (Schistosoma mansoni [5]) of 40% and an Activity (Schistosoma mansoni [6]) of 20%.

In the case of `CCN(CC)/C(=N/C#N)NCc1ccccc1`, the Activity (Schistosoma mansoni [13]) is reported as “inactive”.

In the case of `CSCC[C@H](N)C(=O)N1CCN(C(=S)SCc2ccc([N+](=O)[O-])cc2)CC1.Cl`, the Activity (HepG2 [21]) is reported as “Toxic”, the Activity (Schistosoma mansoni [9]) is reported as “Active” and the Activity (Schistosoma mansoni [2]) is reported as “inactive”. For the same molecule, the Activity (LS174T [22]) was “Toxic”, the Activity (Schistosoma mansoni [23]) was “Active” and the Activity (Schistosoma mansoni [24]) was “Active”. The Activity (Schistosoma mansoni [10]) was 60% and the Activity (Schistosoma mansoni [25]) was “Active”.

`CCN(CC)C(=O)SCc1ccccc1` showed an Activity (Schistosoma mansoni [14]) of about 90%.

`CCN(CC)C(=S)SCCC1SCCS1` was tested, and the Activity (Schistosoma mansoni [26]) was “Active”, the Activity (HepG2 [15]) was “Non-Toxic” and the Activity (Schistosoma mansoni [19]) was over 60%. The Activity (LS174T [16]) was “Non-Toxic” and the Activity (Schistosoma mansoni [27]) was over 90%.

Work on `CCN(CC)C(=S)SCc1cccc2ccccc12` yielded an Activity (Schistosoma mansoni [28]) of about 30%.

With `CCN(CC)C(=S)SCCCCc1ccccc1` the Activity (Schistosoma mansoni [14]) was “Active” and the Activity (Schistosoma mansoni [8]) was “inactive”.

In the case of `CCN(CC)C(=S)SC(c1ccccc1)c1ccccc1`, the Activity (Schistosoma mansoni [8]) is reported as “Active”.

For `CCCCCCN(CCCCCC)C(=S)SCc1ccccc1`, the Activity (Schistosoma mansoni [13]) was “inactive”.

`CCN(CC)C(=S)SCCC1OCCO1` was tested, and the Activity (Schistosoma mansoni [19]) was “inactive” and the Activity (Schistosoma mansoni [27]) was “inactive”.

For `Cl.S=C(SCc1ccccc1)N1CCNCC1`, the Activity (Schistosoma mansoni [28]) was about 35%, the Activity (Schistosoma mansoni [29]) was “Active” and the Activity (LS174T [18]) was “Toxic”. The Activity (Schistosoma mansoni [19]) was “>=55%”, the Activity (HepG2 [20]) was “Toxic” and the Activity (Schistosoma mansoni [30]) was “Active”.

In the case of `CCN(CC)C(=S)SCC(=O)OC`, the Activity (Schistosoma mansoni [8]) is reported as “Active”.

`CCCN1CCN(C(=S)SCc2ccccc2)CC1` was tested, and the Activity (Schistosoma mansoni [17]) was “Active”.

In the case of `CCC(CC)C(=S)SCc1ccccc1`, the Activity (Schistosoma mansoni [13]) is reported as “Active”.

`CCN(CC)C(=S)SCCCc1ccccc1` was tested, and the Activity (Schistosoma mansoni [19]) was “inactive”, the Activity (Schistosoma mansoni [14]) was 100% and the Activity (Schistosoma mansoni [8]) was 100%.

With `CCN(CC)C(=S)SCCc1c[nH]c2ccccc12` the Activity (Schistosoma mansoni [29]) was “Active” and the Activity (Schistosoma mansoni [19]) was “inactive”.

`CCN(CC)C(=S)SCc1ccncc1` was tested, and the Activity (Schistosoma mansoni [13]) was “inactive”.

In the case of `CCN(CC)C(=S)NCc1ccccc1`, the Activity (Schistosoma mansoni [13]) is reported as “inactive”.
